For the series, the system named is KM mice. Format: in vivo. Conditions: high-dose group, dead mice, HE staining. On the procedure:
After the acute toxicity test, the dead mice after oral administration and the surviving mice at the end of the observation period were promptly dissected and pathologically examined. […] We dissected the important organs (heart, liver, spleen, lung, kidney, large intestine, and small intestine) of dead mice and normal mice in the high-dose group of each drug solution. Then, the main organs were fixed in 10% buffered formalin and embedded in paraffin for 1–4 h. They were histopathologically examined under the optical microscope after slicing and staining with hematoxylin-eosin (HE) staining. No fixed parameters were compared between the treatment and control groups.

Consider `CCN1CCN(c2cc3c(cc2F)c(=O)c(C(=O)[O-])cn3C2CC2)CC1.[Na+]` [EFX-Na, reference compound], for which the “histopathological finding in kidney tissue” value is “more and larger glomeruli in kidney tissue”.

Values taken from PMC8878047 (Pharmaceutics, 2022).
